In the supplement of paper PMC10307832:

Tests used:
Assay in all cases: relative viability (nuclei count vs DMSO), 5 days (fraction); higher = more cells survive
[1] = compound: C(C(=O)C(=O)O)Br [Bromopyruvate] + CC(=O)c1c(C)c2cnc(Nc3ccc(N4CCNCC4)cn3)nc2n(C2CCCC2)c1=O [Palbociclib] (partner 0.5 µM)
Summary of the method: (§1)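 Cells from lung cancer lines were seeded into 1536-well plates and, one day later, dosed by pin tool. Treatments were either a single drug or a fixed dose of an anchor drug with five library-drug doses (not always all listed) in √10 steps. After 5 days, nuclei were stained in a one-step fixation (final 0.05% Triton X-100, 1% formaldehyde, 1 ug/ml Hoechst) and counted on 4× images, and relative viability is the treated-to-vehicle nuclei ratio, as the median of duplicate plates.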

[2] = compound: C(C(=O)C(=O)O)Br [Bromopyruvate] + CC1(C)CCC(c2ccc(Cl)cc2)=C(CN2CCN(c3ccc(C(=O)NS(=O)(=O)c4ccc(N[C@H](CCN5CCOCC5)CSc5ccccc5)c(S(=O)(=O)C(F)(F)F)c4)cc3)CC2)C1 [Navitoclax] (partner 0.5 µM)
Summary of the method: as §1

[3] = compound: CC(O)(CS(=O)(=O)c1ccc(F)cc1)C(=O)Nc1ccc(C#N)c(C(F)(F)F)c1 [Bicalutamide] + C[C@@H](Oc1cc(-c2cnn(C3CCNCC3)c2)cnc1N)c1c(Cl)ccc(F)c1Cl [Crizotinib] (partner 1 µM)
Summary of the method: as §1

[4] = compound: CC(O)(CS(=O)(=O)c1ccc(F)cc1)C(=O)Nc1ccc(C#N)c(C(F)(F)F)c1 [Bicalutamide] + C[C@]1(O)C[C@@H](c2nc(-c3ccc4ccc(-c5ccccc5)nc4c3)c3c(N)nccn32)C1 [Linsitinib] (partner 1 µM)
Summary of the method: as §1

| Cell Line | relative viability ([1]; first compound 1 µM) | relative viability ([1]; first compound 3.162 µM) | relative viability ([1]; first compound 10 µM) | relative viability ([1]; first compound 31.62 µM) | relative viability ([1]; first compound 100 µM) | relative viability ([2]; first compound 1 µM) | relative viability ([2]; first compound 3.162 µM) | relative viability ([2]; first compound 10 µM) | relative viability ([2]; first compound 31.62 µM) | relative viability ([2]; first compound 100 µM) | relative viability ([3]; first compound 0.08 µM) | relative viability ([3]; first compound 0.253 µM) | relative viability ([3]; first compound 0.8 µM) | relative viability ([3]; first compound 2.53 µM) | relative viability ([4]; first compound 0.08 µM) | relative viability ([4]; first compound 0.253 µM) | relative viability ([4]; first compound 0.8 µM) | relative viability ([4]; first compound 2.53 µM) |
| --- | --- | --- | --- | --- | --- | --- | --- | --- | --- | --- | --- | --- | --- | --- | --- | --- | --- | --- |
| NCI-H838 | 0.19 | 0.251 | 0.229 | 0.237 | 0.242 | 1.11 | 1.16 | 1.3 | 1.17 | 1.28 | 0.823 | 0.762 | 0.833 | 0.602 | 0.962 | 1 | 1 | 0.827 |
| NCI-H1355 | 0.388 | 0.401 | 0.356 | 0.373 | 0.407 | 0.936 | 0.982 | 1 | 0.901 | 0.91 | 1.12 | 0.993 | 1.14 | 1.04 | 0.781 | 0.782 | 0.957 | 0.805 |
| NCI-H1437 | 0.342 | 0.285 | 0.323 | 0.314 | 0.305 | 1.11 | 1.09 | 1.11 | 1.09 | 1.17 | 0.899 | 0.893 | 0.895 | 0.923 | 1.01 | 1 | 1.28 | 0.965 |
| NCI-H1651 | 0.479 | 0.477 | 0.542 | 0.519 | 0.492 | 1.04 | 0.97 | 1.07 | 0.96 | 1.2 | 0.868 | 0.861 | 0.912 | 0.892 | 0.966 | 0.903 | 1.1 | 0.913 |
| NCI-H1666 | 0.618 | 0.632 | 0.64 | 0.622 | 0.599 | 0.957 | 1.12 | 1.03 | 1.01 | 0.754 | 1.13 | 0.969 | 1.15 | 0.794 | 0.814 | 0.8 | 0.932 | 0.955 |
| NCI-H1734 | 0.349 | 0.378 | 0.39 | 0.34 | 0.295 | 0.76 | 0.799 | 0.975 | 0.809 | 0.886 | 0.667 | 0.553 | 0.798 | 0.616 | 0.87 | 0.76 | 0.947 | 0.863 |
| NCI-H1755 | 0.477 | 0.43 | 0.45 | 0.431 | 0.456 | 1.06 | 1.02 | 0.977 | 1.03 | 1.03 | 0.901 | 0.803 | 0.849 | 0.791 | 0.99 | 0.988 | 1.02 | 0.958 |
| NCI-H1792 | 0.673 | 0.698 | 0.684 |  | 0.656 | 0.716 | 0.719 | 0.787 | 0.486 | 0.542 | 0.922 | 0.888 | 1.02 | 1.02 | 0.585 | 0.412 | 0.549 | 0.48 |
| NCI-H1915 | 0.524 | 0.532 | 0.538 | 0.514 | 0.56 | 0.827 | 0.765 | 0.792 | 0.824 | 0.801 | 0.873 | 0.815 | 0.969 | 0.889 | 1.11 | 1.13 | 1.1 | 1.03 |
